Test results as given in ChEMBL document CHEMBL4184284, “MF-8, a novel promising arylpiperazine-hydantoin based 5-HT7 receptor antagonist: In vitro drug-likeness studies and in vivo pharmacological evaluation” (Bioorg Med Chem Lett, 2018).
Active and inactive are the calls of the source. No cut-off for these calls is given here.

Key:
[1] = Effective permeability of the compound at 200 uM after 5 hrs by PAMPA; assay type: ADME; settings: read-out: Peff
[2] = Drug level in human liver microsomes treated with MF-8 at 50 uM preincubated for 5 mins followed by NADPH addition measured after 30 mins by UPLC-MS analysis; assay type: ADME, microsome; settings: 0.5 h
[3] = Drug level in rat liver microsomes treated with MF-8 at 50 uM preincubated for 5 mins followed by NADPH addition measured after 30 mins by UPLC-MS analysis; assay type: ADME, microsome; settings: 0.5 h
[4] = Drug level in mouse liver microsomes treated with MF-8 at 50 uM preincubated for 5 mins followed by NADPH addition measured after 30 mins by UPLC-MS analysis; assay type: ADME, microsome; settings: 0.5 h
[5] = Retention time of the compound by UPLC-MS analysis; assay type: physicochemical
HEK293 [6] = test: Cytotoxicity against HEK293 cells assessed as reduction in cell viability at 1 uM after 48 hrs by EZ4U labeling based assay; settings: human, hek293, 48 h
[7] = Drug level in rat liver microsomes treated with aripiprazole at 50 uM preincubated for 5 mins followed by NADPH addition measured after 30 mins by UPLC-MS analysis; assay type: ADME, microsome; settings: 0.5 h
[8] = Drug level in mouse liver microsomes treated with aripiprazole at 50 uM preincubated for 5 mins followed by NADPH addition measured after 30 mins by UPLC-MS analysis; assay type: ADME, microsome; settings: 0.5 h
HepG2 [9] = test: Cytotoxicity against human HepG2 cells assessed as ATP level at 10 uM after 120 mins by bioluminescence-based assay relative to control; assay type: cell-based; settings: hepg2, 2 h
Mus musculus [10] = test: Anxiolytic-like activity in Swiss albino mouse assessed as increase in number of punished crossings at 1.25 to 5 mg/kg, ip administered for 60 mins measured for 1 min post 3 sec electric shock by four-plate test; assay type: functional, organism-based
P-gp [11] = test: Activity at recombinant human Pgp expressed in cell membranes assessed as basal ATPase activity at 200 uM after 200 mins by P-gp Glo assay relative to control; assay type: ADME; settings: cell membranes expressing recombinant human P-gp, read-out: Activity
[12] = Activity at recombinant human Pgp expressed in cell membranes assessed as basal ATPase activity at 100 uM after 200 mins by P-gp Glo assay relative to control; assay type: ADME
Mus musculus [13] = test: Antidepressant-like activity in Swiss albino mouse assessed as decrease in immobility time at 10 mg/kg, ip administered 30 mins prior to test measured for last 4 mins of 6 mins observation by forced swim test; assay type: functional, organism-based
Rattus norvegicus [14] = test: Antidepressant-like activity in Wistar rat assessed as decrease in immobility time at 1.25 mg/kg, ip administered 30 mins prior to test measured for 5 mins by forced swim test; assay type: functional; parameters: scale not given: the % may be the effect or the level left
Rattus norvegicus [15] = test: Antidepressant-like activity in Wistar rat assessed as decrease in immobility time at 2.5 mg/kg, ip administered 30 mins prior to test measured for 5 mins by forced swim test; assay type: functional; parameters: scale not given: the % may be the effect or the level left
Mus musculus [16] = test: Anxiolytic-like activity in Swiss albino mouse assessed as increase in number of punished crossings at 1 mg/kg, ip administered for 30 mins measured for 1 min post 3 sec electric shock by four-plate test; assay type: functional, organism-based
[17] = Intrinsic clearance in mouse liver microsomes at 50 uM preincubated for 5 mins followed by NADPH addition measured up to 30 mins; assay type: ADME, microsome; settings: read-out: CLH
[18] = Intrinsic clearance in rat liver microsomes at 50 uM preincubated for 5 mins followed by NADPH addition measured up to 30 mins; assay type: ADME, microsome; settings: read-out: CLH
[19] = Drug metabolism in human liver microsomes assessed as OPC-14857 formation at 50 uM preincubated for 5 mins followed by NADPH addition measured after 30 mins by UPLC-MS analysis; assay type: ADME, microsome; settings: 0.5 h
[20] = Drug metabolism in rat liver microsomes assessed as DM1451 formation at 50 uM preincubated for 5 mins followed by NADPH addition measured after 30 mins by UPLC-MS analysis; assay type: ADME, microsome; settings: 0.5 h
[21] = Drug metabolism in mouse liver microsomes assessed as DM1451 formation at 50 uM preincubated for 5 mins followed by NADPH addition measured after 30 mins by UPLC-MS analysis; assay type: ADME, microsome; settings: 0.5 h
[22] = Drug metabolism in mouse liver microsomes assessed as hydroxylated main metabolite formation at 50 uM preincubated for 5 mins followed by NADPH addition measured after 30 mins by UPLC-MS analysis; assay type: ADME, microsome; settings: 0.5 h
Mus musculus [23] = test: Antidepressant-like activity in Swiss albino mouse assessed as decrease in immobility time at 10 to 20 mg/kg, ip administered 30 mins prior to test measured for last 4 mins of 6 mins observation by forced swim test; assay type: functional, organism-based
Rattus norvegicus [24] = test: Antidepressant-like activity in Wistar rat assessed as decrease in immobility time at 30 mg/kg, ip administered 30 mins prior to test measured for 5 mins by forced swim test; assay type: functional; parameters: scale not given: the % may be the effect or the level left
P-gp [25] = test: Activity at recombinant human Pgp expressed in cell membranes assessed as basal ATPase activity at 50 uM after 40 mins by P-gp Glo assay relative to control; assay type: ADME; settings: cell membranes expressing recombinant human P-gp, read-out: Activity
[26] = Intrinsic clearance in human liver microsomes at 50 uM preincubated for 5 mins followed by NADPH addition measured up to 45 mins; assay type: ADME, microsome; settings: read-out: CLH
[27] = Drug metabolism in human liver microsomes at 50 uM preincubated for 5 mins followed by NADPH addition measured after 30 mins by UPLC-MS analysis; assay type: ADME, microsome; settings: 0.5 h
[28] = Drug metabolism in rat liver microsomes at 50 uM preincubated for 5 mins followed by NADPH addition measured after 30 mins by UPLC-MS analysis; assay type: ADME, microsome; settings: 0.5 h
[29] = Drug metabolism in mouse liver microsomes at 50 uM preincubated for 5 mins followed by NADPH addition measured after 30 mins by UPLC-MS analysis; assay type: ADME, microsome; settings: 0.5 h
CYP2D6 = CYP2D6 (Homo sapiens, UniProt P10635); test: Inhibition of CYP2D6 (unknown origin) assessed as residual activity at 25 uM using luciferin-ME EGE as substrate by CYP450-Glo assay; assay type: ADME; settings: CYP2D6 enzyme (unknown origin), probe luciferin-ME EGE, read-out: Activity
Cytochrome P450 2D6 = Cytochrome P450 2D6 (Homo sapiens, UniProt P10635); test: Inhibition of CYP2D6 (unknown origin) at 0.025 to 25 uM using luciferin-ME EGE as substrate by CYP450-Glo assay; assay type: ADME
[30] = Cytotoxicity against HEK293 cells assessed as cell viability at 100 uM after 48 hrs by EZ4U labeling based assay relative to control; settings: human, read-out: Activity
[31] = Cytotoxicity against human HepG2 cells assessed as ATP level at 100 uM after 120 mins by bioluminescence-based assay relative to control; assay type: cell-based; settings: read-out: Activity
HEK293 [32] = test: Cytotoxicity against HEK293 cells assessed as reduction in cell viability at 250 uM after 48 hrs by EZ4U labeling based assay; settings: human, hek293, 48 h
HepG2 [33] = test: Cytotoxicity against human HepG2 cells assessed as reduction in ATP level at 1 to 100 uM after 120 mins by bioluminescence-based assay; assay type: cell-based; settings: hepg2, 2 h
Salmonella typhimurium = test: Mutagenicity in Salmonella typhimurium TA100 assessed as revertant colonies at 1 to 10 uM by Ames test; assay type: toxicity, organism-based; settings: salmonella enterica subsp. enterica serovar typhimurium
Mus musculus [34] = test: Antidepressant-like activity in Swiss albino mouse assessed as decrease in immobility time at 5 mg/kg, ip administered 60 mins prior to test measured for last 4 mins of 6 mins observation by forced swim test; assay type: functional; parameters: scale not given: the % may be the effect or the level left
Mus musculus [35] = test: Antidepressant-like activity in Swiss albino mouse assessed as decrease in immobility time at 1.25 to 2.5 mg/kg, ip administered 60 mins prior to test measured for last 4 mins of 6 mins observation by forced swim test; assay type: functional, organism-based
Rattus norvegicus [36] = test: Antidepressant-like activity in Wistar rat assessed as decrease in immobility time at 5 mg/kg, ip administered 60 mins prior to test measured for 5 mins by forced swim test; assay type: functional; parameters: scale not given: the % may be the effect or the level left
Rattus norvegicus [37] = test: Antidepressant-like activity in Wistar rat assessed as decrease in immobility time at 10 mg/kg, ip administered 60 mins prior to test measured for 5 mins by forced swim test; assay type: functional; parameters: scale not given: the % may be the effect or the level left
Mus musculus [38] = test: Anxiolytic-like activity in Swiss albino mouse assessed as increase in number of punished crossings at 10 mg/kg, ip administered for 60 mins measured for 1 min post 3 sec electric shock by four-plate test; assay type: functional
Mus musculus [39] = test: Anxiolytic-like activity in Swiss albino mouse assessed as increase in number of punished crossings at 2.5 to 5 mg/kg, ip administered for 60 mins measured for 1 min post 3 sec electric shock by four-plate test; assay type: functional, organism-based
Mus musculus [40] = test: Toxicity in Swiss albino mouse assessed as effect on spontaneous locomotor activity at 1.25 to 5 mg/kg, ip measured for 2 to 6 mins; assay type: organism-based; settings: in vivo
Rattus norvegicus [41] = test: Toxicity in Wistar rat assessed as effect on spontaneous locomotor activity at 2.5 to 10 mg/kg, ip measured for 5 mins by open field test; assay type: organism-based; settings: in vivo
Mus musculus [42] = test: Toxicity in Swiss albino mouse assessed as effect on spontaneous locomotor activity at 2.5 to 10 mg/kg, ip measured for 1 min; assay type: organism-based; settings: in vivo
[43] = Drug level in human liver microsomes treated with aripiprazole at 50 uM preincubated for 5 mins followed by NADPH addition measured after 30 mins by UPLC-MS analysis; assay type: ADME, microsome; settings: 0.5 h

CYP2D6, sequence (P10635 whole entry): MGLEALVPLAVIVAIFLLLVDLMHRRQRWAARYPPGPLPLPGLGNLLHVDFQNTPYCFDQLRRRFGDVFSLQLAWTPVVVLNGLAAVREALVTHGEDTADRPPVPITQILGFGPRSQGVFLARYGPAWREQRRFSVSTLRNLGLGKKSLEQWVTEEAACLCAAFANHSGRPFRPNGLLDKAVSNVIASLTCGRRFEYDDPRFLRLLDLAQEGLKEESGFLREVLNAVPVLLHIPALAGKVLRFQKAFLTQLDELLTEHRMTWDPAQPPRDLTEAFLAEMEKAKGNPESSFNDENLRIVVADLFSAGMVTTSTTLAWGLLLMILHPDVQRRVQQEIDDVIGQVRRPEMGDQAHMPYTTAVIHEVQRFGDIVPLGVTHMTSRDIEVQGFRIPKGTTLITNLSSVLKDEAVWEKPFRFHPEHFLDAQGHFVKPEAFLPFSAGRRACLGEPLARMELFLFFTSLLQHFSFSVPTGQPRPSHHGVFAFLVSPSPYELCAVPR
Cytochrome P450 2D6, sequence (P10635 whole entry): as above

Compound: Cn1c(=O)c2c(ncn2C)n(C)c1=O [CAFFEINE]
- Papp at 5 h, 200 µM [1]: 3.61 ×10⁻⁶ cm/s

Compound: COc1cc(O)ccc1N1CCN(CC(O)CN2C(=O)NC(C)(c3ccc(F)cc3)C2=O)CC1 (stereo not given)
- Drug metabolism [2]: Metabolite_Detected
- Drug metabolism [3]: Metabolite_Detected
- Drug metabolism [4]: Metabolite_Detected
- Retention_time [5]: 3.4 min

Compound: COc1cccc2c1C(=O)c1c(O)c3c(c(O)c1C2=O)C[C@@](O)(C(=O)CO)C[C@@H]3O[C@H]1C[C@H](N)[C@H](O)[C@H](C)O1 [DOXORUBICIN]
- Activity (HEK293 [6]): Toxic

Compound: O=C1CCc2ccc(OCCCCN3CCN(c4ccc(O)c(Cl)c4Cl)CC3)cc2N1
- Drug metabolism [7]: Metabolite_Detected
- Drug metabolism [8]: Metabolite_Detected

Compound: N#CC(C#N)=NNc1cccc(Cl)c1 [CARBONYL CYANIDE M-CHLOROPHENYLHYDRAZONE]
- Activity (HepG2 [9]): 78%

Compound: CCn1cc(C(=O)O)c(=O)c2cc(F)c(N3CCNCC3)cc21 [NORFLOXACIN]
- Papp at 5 h, 200 µM [1]: 0.95 ×10⁻⁶ cm/s

Compound: CN1C(=O)CN=C(c2ccccc2)c2cc(Cl)ccc21
- Activity (Mus musculus [10]): Active

Compound: COc1ccc(CCN(C)CCCC(C#N)(c2ccc(OC)c(OC)c2)C(C)C)cc1OC (stereo not given)
- activity at 200 min, 200 µM (P-gp [11]): > 160%

Compound: SODIUM ORTHOVANAD
- Activity [12]: 0%

Compound: CC1CCN(CC[C@H]2CCCN2S(=O)(=O)c2cccc(O)c2)CC1
- Activity (Mus musculus [13]): Active
- Activity (Rattus norvegicus [14]): 30%
- Activity (Rattus norvegicus [15]): 22%
- Activity (Mus musculus [16]): Active

Compound: O=C1CCc2ccc(OCCCCN3CCN(c4cccc(Cl)c4Cl)CC3)cc2N1 [ARIPIPRAZOLE]
- CLint scaled at 50 µM [17]: 12.5 mL/min/kg
- CLint scaled at 50 µM [18]: 7.02 mL/min/kg
- Drug metabolism [19]: Metabolite_Detected
- Drug metabolism [20]: Metabolite_Detected
- Drug metabolism [21]: Metabolite_Detected
- Drug metabolism [22]: Metabolite_Detected

Compound: CN(C)CCCN1c2ccccc2CCc2ccccc21 [IMIPRAMINE]
- Activity (Mus musculus [23]): Active
- Activity (Rattus norvegicus [24]): 30%

Compound: COc1ccccc1N1CCN(CC(O)CN2C(=O)NC(C)(c3ccc(F)cc3)C2=O)CC1 (stereo not given)
- Papp at 5 h, 200 µM [1]: 2.3 ×10⁻⁶ cm/s
- activity at 40 min, 50 µM (P-gp [25]): 88.7%
- CLint scaled at 50 µM [26]: 8.2 mL/min/kg
- CLint scaled at 50 µM [17]: 17.2 mL/min/kg
- CLint scaled at 50 µM [18]: 21.2 mL/min/kg
- Drug metabolism [27]: Metabolite_Detected
- Drug metabolism [28]: Metabolite_Detected
- Drug metabolism [29]: Metabolite_Detected
- activity at 25 µM (CYP2D6): 69.4%
- inhibition (INH) (Cytochrome P450 2D6): Not Active
- viability at 48 h, 100 µM [30]: 89.2%
- viability at 2 h, 100 µM [31]: 90%
- Activity (HEK293 [32]): Toxic
- Activity (HepG2 [33]): Non-Toxic
- Activity (Salmonella typhimurium): Non-Toxic
- Activity (Mus musculus [34]): 36%
- Activity (Mus musculus [35]): inactive
- Activity (Rattus norvegicus [36]): 35%
- Activity (Rattus norvegicus [37]): 26%
- Activity (Mus musculus [38]): 30%
- Activity (Mus musculus [39]): inactive
- Activity (Mus musculus [40]): Non-Toxic
- Activity (Rattus norvegicus [41]): Non-Toxic
- Activity (Mus musculus [42]): Non-Toxic

Compound: O=c1ccc2ccc(OCCCCN3CCN(c4cccc(Cl)c4Cl)CC3)cc2[nH]1
- Drug metabolism [43]: Metabolite_Detected
